According to patent publication US7807630B2, “Targeting of Notch3 receptor function for cancer therapy” (Vanderbilt University, priority 2007, dated 2010):
Entries after “also recorded” stand apart in the source; their conditions may differ. Where no end group is shown, it is not given here.

Key:
[1] = Peptide screen for apoptosis by Annexin V staining using an FMAT system; assay type: cell-based; conditions: FMAT screen of 155 peptides, quadruplicate
Method: FIG. 13. […] Each of 155 different peptides were assayed in quadruplicate, and only those peptides that produced a significant increase of fluorescence signal in all 4 wells were considered potentially positive or capable of inducing apoptosis. The bar graphs here reflect fluorescence counts. Sequences N102: CATAV, N103: CFHGAT, N105: CVSNP, N132: CLNGGS.
(§1) Each of 155 different peptides were assayed in quadruplicate, and only those peptides that produced a significant increase of fluorescence signal in all 4 wells were considered potentially positive or capable of inducing apoptosis. The bar graphs here reflect fluorescence counts. […] The peptides were then immunoprecipitated from cell lysate with streptavidin beads and immunoblotted with anti-HA antibody.

HCC2429 xenografts = assay: MRK003 treatment of subcutaneous HCC2429 xenografts; assay type: in vivo, mice
Method: (FIG. 8A) Xenografts injected with HCC2429 were treated with MRK003 once the tumors became palpable. After 2 weeks of treatment, the inventors observed about a 50% reduction in tumor size. […] Histological examination of resected tumors from xenografts at the end of treatment.
To assess the effect of pharmacologically inhibiting Notch activation in vivo, the inventors treated subcutaneous xenografts with MRK003, a γ-secretase inhibitor from Merck, Inc. & Co. Based on the manufacturer's recommended dose, the mice were treated with 100 mg/kg orally for 3 consecutives days per week once the tumors were palpable. At the end of a 2-week treatment, the animals were then euthanized, and the tumors were harvested.

HCC2429 cells [2] = assay: Cell survival with MRK003 in HCC2429 clones expressing Notch3 siRNA; assay type: cell-based, human; conditions: HCC2429 clones with loss of Notch3 (siRNA-N3)
Method: HCC2429 cells are sensitive to GSI, and the sensitivity increases in low serum, similarly to that observed with clones expressing the DN construct. Tumor cells treated with DMSO alone had no change in cell viability. (FIG. 7B) Inhibition of S3 proteolytic processing results in the decrease of Notch3 intracellular domain (N3ICD) and accumulation of S2 product (N3ΔE) after 3 hours. (FIG. 7C) In this experiment, HCC2429 was stably transfected with plasmid vector expressing Notch3 siRNA.
A γ-Secretase Inhibitor Reduces Proliferation in Lung Cancer Cells. Proteolytic processing of Notch receptors is required for activation. As previously described, three proteolytic cleavage sites are involved in enabling Notch signaling. In the final step, the membrane-associated Notch fragment is cleaved within its transmembrane domain by a γ-secretase-containing protein complex. Mammalian presenilins (PS-1 and PS-2) are polytopic transmembrane proteins that appear to function as aspartyl proteases within a multiprotein, γ-secretase complex (Wolfe and Kopan, 2004). Presenilins provide the active site of the proteolytic activity. This last cleavage releases the Notch intracellular domain, initiating CBF-1-mediated signaling. […]

[3] = system: HCC2429 lung cancer cell line; assay: Soft-agar colony assay, MRK003 with AG1478; assay type: cell-based, human
Excerpt: FIGS. 12A-B. In HCC2429 lung cancer cell line, Notch inhibitor MRK003 enhances the effect of EGFR inhibitor AG1478 on colony formation in soft agar. […] (FIG. 12B) Graph depicts the quantitative decrease in colony formation.
(§2) EGFr Inhibitors Enhance the Anti-proliferation Effect of Notch3 Inhibition. […] Based on existing literature and their observations, the inventors hypothesized that Notch3 acts synergistically with the EGFR pathway in the promotion and the survival of lung cancer cells and that combining inhibitors of both pathways will have synergistic therapeutic value. To test this hypothesis, the inventors examined whether inhibiting the Notch3 pathway increases tumor inhibition when lung cancer cells are treated with an EGFR tyrosine kinase inhibitor, AG1478. […] Synergism can also be observed when the γ-secretase inhibitor L-685,458 is added to AG1478 (FIG. 11B). […] From a therapeutic standpoint, Notch3 is a good target for therapeutic intervention both alone and in combination with growth factor receptor inhibitors.

HCC2429 cells [4] = assay: Sensitivity to the EGFR tyrosine kinase inhibitor AG1478 with and without Notch3 inhibition (DN construct); assay type: cell-based, human
Excerpt: (§3) FIGS. 11A-B. Notch3 modulates the EGF pathway and increases sensitivity to an EGFr inhibitor. (FIG. 11A) In HCC2429, inhibition of the Notch3 pathway increases sensitivity to AG1478 nearly 40-fold. […] (FIG. 11B) A similar observation is made in H460 when the inventors combine AG1478 with L-685,458, a γ-secretase inhibitor, further supporting the hypothesis that EGF cooperates with the Notch pathway in oncogenesis.
as §2

H460 = assay: Sensitivity to AG1478 with and without Notch3 inhibition (DN construct or γ-secretase inhibitor); assay type: cell-based, human
Excerpt: as §3, §2

[5] = Apoptosis (percentage of annexin V positive cells) after Fc-fusion protein treatment; assay type: cell-based; conditions: 40 hrs treatment, compared to control and Fc control
Method: […] […] Apoptosis was determined by percentage of annexin V positive cells. Sequences N16: CFNTLGGHS, N17: CVCVNGWTGES, N132: CLNGGS.

HCC2429 = assay: Apoptosis by annexin V labelling and flow cytometry after Notch3 peptide treatment; assay type: cell-based, human; conditions: HCC2429, compared to control
Method: (FIG. 14A) HCC2429 was treated with Notch3 peptides N16, N17, N102, N103, N132. […] MRK003-treated cell is used as positive control. After treatment, cells were labeled with annexin V and detected using flow cytometry. […] MRK003-treated cells were used as positive control. Sequences N16: CFNTLGGHS, N17: CVCVNGWTGES, N102: CATAV, N103: CFHGAT, N132: CLNGGS. […]

[6] = system: Notch3-dependent gene Hey1; assay: Hey1 transcription by real-time RT-PCR after peptide treatment; assay type: cell-based, human
Jagged1 = target: T1, Jagged1 (Homo sapiens, UniProt P78504); assay: Streptavidin pull-down of peptides from Jagged1-HA transfected HEK cells, anti-HA immunoblot; assay type: binding; conditions: HEK cells transfected with Jagged1-HA, anti-HA blot
T1 construct: expressed in transfected cells; host or cells: HEK cells
Method: FIG. 15. […] HEK cells were transfected with Jagged1-HA and treated with Notch3 peptides. The peptides were then immunoprecipitated from cell lysate with streptavidin beads and immunoblotted with anti-HA antibody. No: no input; C: control peptide. Sequences N16: CFNTLGGHS, N17: CVCVNGWTGES, N102: CATAV, N103: CFHGAT, N132: CLNGGS.
as §1

T1 sequence (P78504 34-1218, species assumed): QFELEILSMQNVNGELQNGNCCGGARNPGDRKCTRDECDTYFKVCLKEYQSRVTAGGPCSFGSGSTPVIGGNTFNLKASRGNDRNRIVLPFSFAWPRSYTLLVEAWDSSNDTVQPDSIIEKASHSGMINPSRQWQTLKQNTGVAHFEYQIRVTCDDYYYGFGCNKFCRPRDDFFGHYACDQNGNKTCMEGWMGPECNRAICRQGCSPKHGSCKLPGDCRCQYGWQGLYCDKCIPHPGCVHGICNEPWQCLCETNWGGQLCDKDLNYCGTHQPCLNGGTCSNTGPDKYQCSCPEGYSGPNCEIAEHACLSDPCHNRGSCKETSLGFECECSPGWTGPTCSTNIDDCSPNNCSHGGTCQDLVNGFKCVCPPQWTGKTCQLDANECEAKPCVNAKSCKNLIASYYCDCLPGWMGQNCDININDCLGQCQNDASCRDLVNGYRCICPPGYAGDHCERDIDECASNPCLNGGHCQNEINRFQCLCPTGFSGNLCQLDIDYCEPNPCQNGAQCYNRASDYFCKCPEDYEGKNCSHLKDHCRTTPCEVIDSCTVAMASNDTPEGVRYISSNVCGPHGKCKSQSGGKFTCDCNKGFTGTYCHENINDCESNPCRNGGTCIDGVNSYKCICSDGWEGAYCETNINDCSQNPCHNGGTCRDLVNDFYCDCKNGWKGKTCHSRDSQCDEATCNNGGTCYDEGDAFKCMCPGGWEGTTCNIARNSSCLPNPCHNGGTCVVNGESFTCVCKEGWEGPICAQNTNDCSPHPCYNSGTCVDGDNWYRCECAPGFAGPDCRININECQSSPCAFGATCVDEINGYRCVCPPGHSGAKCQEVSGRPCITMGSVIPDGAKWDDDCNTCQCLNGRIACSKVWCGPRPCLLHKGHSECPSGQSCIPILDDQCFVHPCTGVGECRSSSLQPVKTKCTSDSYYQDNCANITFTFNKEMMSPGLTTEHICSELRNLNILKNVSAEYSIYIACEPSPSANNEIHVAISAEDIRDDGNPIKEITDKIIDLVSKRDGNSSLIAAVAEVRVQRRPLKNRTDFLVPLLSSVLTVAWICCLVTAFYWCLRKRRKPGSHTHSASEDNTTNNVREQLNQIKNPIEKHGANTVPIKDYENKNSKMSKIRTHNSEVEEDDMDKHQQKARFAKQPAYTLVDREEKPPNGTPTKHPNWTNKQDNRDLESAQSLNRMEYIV

Compound	apoptosis by Annexin V staining (fluorescence counts) [1]	apoptosis (annexin V, flow cytometry) (HCC2429)	transcription of Notch3-dependent gene Hey1 [6]	binding to ligand Jagged1 (Jagged1)	further results
CVSNP [N105, Notch3 peptide]	induce apoptosis	–	–	–	–
O=S1(=O)N[C@@]2(CN1CC(F)(F)F)[C@@H]1CC[C@H]2Cc2ccc(/C=C/CN3CCC(C(F)(F)F)CC3)cc2C1 [MRK003]	–	–	–	–	tumor size (HCC2429 xenografts; 100 mg/kg orally, 3 consecutive days per week, end of 2-week treatment): reduction of tumor size; reduction in tumor size (HCC2429 xenografts; HCC2429 xenografts, 100 mg/kg orally, 3 consecutive days per week, after 2 weeks of treatment): ~50%; histological examination of resected tumors (HCC2429 xenografts; end of treatment, compared to control): Marked necrosis; activated Notch3 (N3ICD) in tumor (HCC2429 xenografts; xenograft tumors treated with MRK003): reduction in activated Notch3 (N3ICD); also recorded: Loss of activated Notch3 (N3ICD); cell survival when treated with MRK003 (HCC2429 cells [2]): no loss in cell survival; colony formation in soft agar ([3]; HCC2429, MRK003 alone): decreases colony formation; colony formation in soft agar, combination with EGFR inhibitor AG1478 ([3]; HCC2429, MRK003 combined with AG1478): additive effects; also recorded: enhances the effect of AG1478 on growth
COc1cc2ncnc(Nc3cccc(Cl)c3)c2cc1OC [AG1478]	–	–	–	–	increase in sensitivity to AG1478 upon inhibition of the Notch3 pathway (HCC2429 cells [4]; HCC2429, DN construct versus control): 40 fold; IC50 (HCC2429 cells [4]; HCC2429, EGF-supplemented media, without Notch3 inhibition): 8.3 µM; IC50 (HCC2429 cells [4]; HCC2429 clones transfected with the DN (dominant-negative Notch3) construct, EGF-supplemented media): 0.2 µM; IC50 (H460; H460, without Notch3 inhibition): 23.8 µM; reduction of cancer cell survival upon inhibition of the Notch3 pathway (H460; H460 treated with AG1478): approximately two-fold; IC50 (H460; H460 with inhibition of the Notch3 pathway): 12.1 µM
N16-17-Fc: Purified recombinant Fc-fusion Notch3 protein with N16-17 sequences (CFNTLGGHSCVCVNGWTGES; cysteine pairing not given here; also: Fc fusion (dimerising Fc left off))	–	–	–	–	apoptosis (percentage of annexin V positive cells) [5]: induces apoptosis
CFNTLGGHS [N16, Notch3 peptide]	–	Induction of apoptosis	reduced transcription of Notch3-dependent gene Hey1	binding to ligand Jagged1	–
CATAV [N102, Notch3 peptide]	induce apoptosis	Induction of apoptosis	reduced transcription of Notch3-dependent gene Hey1	binding to ligand Jagged1	–
CFHGAT [N103, Notch3 peptide]	induce apoptosis	Induction of apoptosis	reduced transcription of Notch3-dependent gene Hey1	binding to ligand Jagged1	–
CC(C)C[C@H](NC(=O)[C@H](Cc1ccccc1)C[C@@H](O)[C@H](Cc1ccccc1)NC(=O)OC(C)(C)C)C(=O)N[C@@H](Cc1ccccc1)C(N)=O [L-685,458]	–	–	–	–	combined effect of L-685,458 added to AG1478 (H460; H460 (FIG. 11B)): Synergism
CVCVNGWTGES [N17, Notch3 peptide]	–	Induction of apoptosis; also recorded: highest apoptotic activity	reduced transcription of Notch3-dependent gene Hey1; also recorded: best reduction in Hey1 transcription	binding to ligand Jagged1	–
CLNGGS [N132, Notch3 peptide]	induce apoptosis	Induction of apoptosis	reduced transcription of Notch3-dependent gene Hey1	binding to ligand Jagged1	–
